Data taken from patent US10118954B2, “Apelin analogues” (University of Ulster, priority 2014, dated 2018).

Legend:
[1] = Degradation of apelin peptides by plasma from fasted normal NIH Swiss mice (rp-HPLC, MALDI-TOF MS); assay type: in vitro ADME; conditions: for half-life at 263 µg/mL / remaining at 4 h, 263 µg/mL: NIH Swiss, mouse, plasma, pH 7.4
Experimental: Degradation of Apelin Peptides by Plasma from Fasted Normal NIH Swiss Mice […] The enzymatic reaction was stopped by adding 50 μl of 10% TFA (0.1% v/v; Sigma-Aldrich Ltd, (Poole, Dorset, UK) and frozen at -20° C. until separation. The terminated reaction products were then applied to an analytical Vydac C-8 column (4.6×150 mm; Phenomenex, Macclesfield, Cheshire, UK) for rp-HPLC analysis. The absorbance was monitored at 214 nm using a […] UV 2000 detector (Thermoquest Limited, Manchester, UK) and the traces were recorded by Thermo Electron ChromQuest data collection software (version 4). HPLC peak fractions were collected manually and subjected to MALDI-TOF mass spectrometry for peptide identification. Degradation profile of various apelin-13 related analogues: plasma incubations (4 h) were separated on a Vydac C-8 analytical HPLC column and all peaks were collected prior to analysis by MALDI-TOF mass spectrometry. Degradation fragments, actual molecular weights (Mr) and retention times (RT) are shown. Theoretical molecular weights of each fragment are shown in brackets. […] Degradation fragments, theoretical molecular weights (Mr) and retention times (RT) are shown. Theoretical molecular weights of each fragment are shown in brackets.

[2] = test system: NIH Swiss mice fed a high-fat diet for 150 days; assay: Acute and delayed i.p. glucose tolerance test, blood glucose and plasma insulin; assay type: in vivo
Experimental: Plasma glucose and plasma insulin concentrations were measured prior to and after i.p. administration of glucose alone (18 mmol/kg body weight), or in combination with apelin analogues (25 nmol/kg body weight) in 18 h fasted mice fed a high-fat diet for 150 days. Values represent mean±SEM for eight mice (n=8). *P<0.05, **P<0.01 and ***P<0.001 compared to glucose alone. FIG. 6 illustrates effect of i.p. administration of glucose alone (18 mmol/kg body weight), ([…])apelin-13 and ([…])apelin-13 alone or in combination (each 25 nmol/kg body weight) on (A) blood glucose and (B) plasma insulin in 18 h fasted mice fed a high-fat diet for 150 days. Values represent mean±SEM for eight mice (n=8). *p<0.05 and **p<0.01 compared to glucose alone, ^+P<0.05 compared to ([…])apelin-13, ^∇P<0.05 and ^∇∇P<0.01 compared to ([…])apelin-13. FIG. 10 illustrates tests conducted 2 h after administration of apelin related analogues (25 nmol/kg body wt) in 18 h fasted mice fed a high-fat diet for 150 days. (A) Blood glucose and (B) plasma insulin was measured before and after i.p. administration of glucose (18 mmol/kg body wt) alone or in combination with apelin analogues. Values represent mean±SEM for eight mice (n=8). *P<0.05 and **P<0.01 compared to glucose alone. FIG. 11 illustrates tests conducted 8 h after administration of apelin related analogues (25 nmol/kg body wt) in 18 h fasted mice fed a high-fat diet for 150 days. (A) Blood glucose and (B) plasma insulin was measured before and after i.p. administration of glucose (18 mmol/kg body wt) alone or in combination with apelin analogues. Values represent mean±SEM for eight mice (n=8). *P<0.05 and **P<0.01 compared to glucose alone. FIG. 12 illustrates acute effects of fatty acid modified apelin analogues on glucose-lowering and insulin release in high fat fed Swiss NIH mice with dietary-induced diabetes. (A) Blood glucose and (B) plasma insulin concentrations were measured prior to and after i.p. administration of glucose alone (18 mmol/kg body weight), or in combination with apelin analogues (25 nmol/kg body weight) in 18 h fasted mice fed a high-fat diet for 150 days. Values represent mean±SEM for eight mice (n=8). *P<0.05, compared to glucose alone. FIG. 13 illustrates tests conducted 16 h after administration of fatty acid apelin analogues (25 nmol/kg body wt) in mice fed a high-fat diet for 150 days. (A) Blood glucose and (B) plasma insulin was measured before and after i.p. administration of glucose (18 mmol/kg body wt) alone or in combination with apelin analogues. Values represent mean±SEM for eight mice (n=8). *P<0.05, **P<0.01 and ***P<0.001 compared to glucose alone. NIH Swiss mice (Harlan UK Ltd., Blackthorne, UK) were derived from a nucleus colony obtained from the National Institute of Health, Bethesda, Md., USA. One group of mice were maintained on a standard rodent diet (10% fat, 30% protein, 60% carbohydrate; percent of total energy 12.99 kJ/g, Trouw Nutrition, Cheshire, UK) and used as a model of normal glycaemia. Other NIH Swiss mice were maintained on a high fat diet (45% fat, 20% protein, 35% carbohydrate; percent of total energy 26.15 […], UK) from 8 weeks of age for 150 days to produce a model of diet induced obesity-diabetes. […] All mice were housed in an air-conditioned room maintained at 22±2° C. with a 12 h light: 12 h dark cycle (08:00-20:00 h), were singly caged, and selected for experimental groups according to body weight and non-fasted blood glucose. Drinking water and diet were freely available. All animal studies were performed in accordance with the UK Animals (Scientific Procedures) Act 1986. For acute in vivo studies, blood samples were collected from the cut tip of the tail vain of fasted, conscious mice into fluoride/heparin coated glucose microcentrifuge tubes (Sarstedt, Germany) immediately prior to (t=0) and at 15, 30, 60 and 105 min following i.p. injection of glucose ([…]).

[3] = test system: high fat fed NIH Swiss mice; assay: 28 day long-term study, twice daily i.p. administration; assay type: in vivo; conditions: for Percentage fat mass compared to high-fat fed controls: DEXA; for Glucose tolerance and plasma insulin excursion following an i.p. and oral glucose load: after the 28 day treatment period
Excerpt: NIH Swiss mice (Harlan UK Ltd., Blackthorne, UK) were derived from a nucleus colony obtained from the National Institute of Health, Bethesda, Md., USA. One group of mice were maintained on a standard rodent diet (10% fat, 30% protein, 60% carbohydrate; percent of total energy 12.99 kJ/g, Trouw Nutrition, Cheshire, UK) and used as a model of normal glycaemia. Other NIH Swiss mice were maintained on a high fat diet (45% fat, 20% protein, 35% carbohydrate; percent of total energy 26.15 […], UK) from 8 weeks of age for 150 days to produce a model of diet induced obesity-diabetes. […] Drinking water and diet were freely available. All animal studies were performed in accordance with the UK Animals (Scientific Procedures) Act 1986. […] Following the run-in period, normal control (n=8) and high-fat fed mice (n=8) received twice daily (09:00 and 17:00 h) i.p. administration of saline vehicle (0.9% NaCl (w/v)) for 28 days. […] Blood samples for glucose and plasma insulin measurement were collected at intervals throughout the study from the cut tail vein of conscious mice. […] Glucose was measured using an Ascensia Contour meter and blood was collected and processed for plasma insulin analysis by radioimmunoassay. Body weight and fat mass was also assessed using the PIXImus DEXA scanner whilst energy expenditure, intake, food intake and feeding bouts were assessed using the CLAMS metabolic chamber. HbA1c was analysed post 28 days using Bayer A1C Now^+ Multi Test meter. Lipid profile test was obtained by using the iLab analyser. Cholesterol, triglyceride and HDL-cholesterol levels were measured, in plasma (3 μl), using the iLab analyser. LDL-cholesterol levels were obtained using the Friedewald equation=total cholesterol-HDL-(triglycerides/3).

male NIH Swiss mice = assay: Acute effects of apelin analogues on voluntary food intake; assay type: in vivo; conditions: 25 nmol/kg i.p., 150 min, FIG. 39
Experimental: Saline and peptide analogues were administered by intraperitoneal injection and cumulative food intake was monitored at 30, 60, 90 and 120 min after feeding.
Mice were habituated to a daily feeding regime of 3 h/day by progressively reducing the daily feeding period over 3 weeks. This was performed to ensure mice consumed entire daily food intake within 3 h, thereby allowing “peptide” effects to be measured over the known eating period of mice. On days 1 to 7, mice were supplied with food from 10:00 h to 20:00 h, on days 8 to 14, food was presented from 10:00 h to 19:00 h and on days 15 to 21, food was restricted to the 3 h interval from 10:00 h to 13:00 h. This regime was continued throughout the experimental period.
Mice that were habituated to a 3 h daily feeding regime were administered with an i.p. injection of saline (0.9% w/v NaCl) or apelin peptide (1-100 nmol/kg bw) at 10:00 h (n=8). Immediately following injection, food was initially weighed and then presented to the mice and subsequently weighed at 30 min intervals up to 180 min.

[4] = acute, peptide 25 nmol/kg i.p. with glucose 18 mmol/kg, Table 4
[5] = following a 2 h delay, 25 nmol/kg
[6] = following a 8 h delay, 25 nmol/kg
[7] = twice daily 25 nmol/kg bw, 28 days
[8] = acute, alone and in combination, each 25 nmol/kg i.p. with glucose, Table 5

| Degradation fragment, Peak 1 [1] | Rank order of stability [1] | half-life at 263 µg/mL [1] [h] | remaining at 4 h, 263 µg/mL [1] [%] | Compound | Rank order on basis of anti-hyperglycaemic efficacy ([2]; acute, Table 4) | Blood glucose as percent of glucose-alone control (lower = stronger glucose lowering) [2, 4] | Insulin secretion, where glucose alone = 100% [2, 4] | Rank order on basis of anti-hyperglycaemic efficacy ([2]; following a 2 h delay) | Blood glucose as percent of glucose-alone control (lower = stronger glucose lowering) [2, 5] | Insulin secretion, where glucose alone = 100% [2, 5] | Rank order on basis of anti-hyperglycaemic efficacy ([2]; following a 8 h delay) | Blood glucose as percent of glucose-alone control (lower = stronger glucose lowering) [2, 6] | Insulin secretion, where glucose alone = 100% [2, 6] | Percentage fat mass compared to high-fat fed controls ([3]; after 28 days) | Glucose tolerance and plasma insulin excursion following an i.p. and oral glucose load [3] | Day of study at which bodyweight was significantly decreased [3, 7] [days] | also measured |
| --- | --- | --- | --- | --- | --- | --- | --- | --- | --- | --- | --- | --- | --- | --- | --- | --- | --- |
| amide (1-5) | 7 | 10.4 | 85 ± 1.3 | CSCC[C@H](NC(=O)[C@@H]1CCCN1C(=O)CNC(=O)[C@H](CCCCN)NC(=O)[C@H](Cc1c[nH]cn1)NC(=O)[C@H](CO)NC(=O)[C@H](CC(C)C)NC(=O)[C@H](CCCNC(=N)N)NC(=O)[C@@H]1CCCN1C(=O)[C@H](CCCNC(=N)N)NC(=O)[C@@H]1CCC(=O)N1)C(=O)N1CCC[C@H]1C(=O)N[C@@H](Cc1ccccc1)C(N)=O [(pGlu)apelin-13-amide] | 1 | 57% (**) | 159% (***) | 1 | 67% (**) | 146% (***) | 1 | 79% (*) | 120% (*) | significantly reduced | significantly improved | ~20 | Degradation fragment, Peak 2 [1]: amide (1-12); Time after injection up to which efficacy is retained ([2]; glucose lowering, high-fat fed mice): up to 8 h; Glycated haemoglobin (HbA1c) in comparison to high-fat fed saline treated controls ([3]; after 28 days): reduction; Insulin sensitivity ([3]; after 28 days, insulin 25 U/kg bw): significantly improved; Day of study at which circulating blood glucose began to be significantly reduced and plasma insulin increased [3, 7]: 10 days; Food intake [3, 7]: significantly reduced food intake; Non-fasting plasma insulin levels [3, 7]: significant increase |
| Apelin-13-amide (1-12) | 5 | 11.4 | 80.4 ± 1.9 | CSCC[C@H](NC(=O)[C@@H]1CCCN1C(=O)CNC(=O)[C@H](CCCCN)NC(=O)[C@H](Cc1c[nH]cn1)NC(=O)[C@H](CO)NC(=O)[C@H](CC(C)C)NC(=O)[C@H](CCCNC(=N)N)NC(=O)[C@@H]1CCCN1C(=O)[C@H](CCCNC(=N)N)NC(=O)[C@@H](N)CCC(N)=O)C(=O)N1CCC[C@H]1C(=O)N[C@@H](Cc1ccccc1)C(N)=O [Apelin-13-amide] | 2 | 65% (**) | 153% (***) | 2 | 73% (**) | 142% (**) | 3 | 88% ^ | 106% | failed to reach significance | significantly improved | ~20 | Glucose lowering, where glucose alone = 100% [2, 8]: 65% (**); Insulin secretion, where glucose alone = 100% [2, 8]: 153% (***) |
|  |  |  |  | CCCCCCCCCCCCCCCC(=O)N[C@@H](CCC(=O)NCCCC[C@H](NC(=O)[C@H](Cc1c[nH]cn1)NC(=O)[C@H](CO)NC(=O)[C@H](CC(C)C)NC(=O)[C@H](CCCNC(=N)N)NC(=O)[C@@H]1CCCN1C(=O)[C@H](CCCNC(=N)N)NC(=O)[C@@H](N)CCC(N)=O)C(=O)NCC(=O)N1CCC[C@H]1C(=O)N[C@@H](CCSC)C(=O)N1CCC[C@H]1C(=O)N[C@H](C(=O)O)C(C)C)C(=O)O [Lys^8GluPAL(Val^13)apelin-13] |  |  |  |  |  |  |  |  |  |  |  |  | Increase of food intake, maximal, compared to saline treated control (male NIH Swiss mice): 9.2% |
